Assay results published in the supplement of paper PMC10307832.

Assays:
Assay in all cases: relative viability (nuclei count vs DMSO), 5 days (fraction); higher = more cells survive
Kobe2602 + Alpelisib = compound: C1=CC(=CC=C1NC(=S)NNC2=C(C=C(C=C2[N+](=O)[O-])C(F)(F)F)[N+](=O)[O-])F [Kobe2602] + Cc1nc(NC(=O)N2CCC[C@H]2C(N)=O)sc1-c1ccnc(C(C)(C)C(F)(F)F)c1 [Alpelisib] (partner 2 µM)
In short: (§1)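 A single step with final 0.05% Triton X-100, 1% formaldehyde and 1 ug/ml Hoechst fixed the cells and stained nuclei 5 days after treatment. Lung cancer cell lines in 1536-well plates had been treated by pin tool the day after seeding with one drug alone or a fixed anchor-drug dose plus five library-drug doses (not always all listed) in √10 steps, and nuclei were counted on 4× images. Relative viability is the ratio of nuclei in treated wells to nuclei in vehicle wells, taken as the median of duplicate plates.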

Kobe2602 + Pemetrexed = compound: C1=CC(=CC=C1NC(=S)NNC2=C(C=C(C=C2[N+](=O)[O-])C(F)(F)F)[N+](=O)[O-])F [Kobe2602] + Nc1nc2[nH]cc(CCc3ccc(C(=O)N[C@@H](CCC(=O)O)C(=O)O)cc3)c2c(=O)[nH]1 [Pemetrexed] (partner 0.2 µM)
In short: as §1

[1] = compound: COc1cc2nccc(Oc3ccc(NC(=O)C4(C(=O)Nc5ccc(F)cc5)CC4)cc3)c2cc1OC [Cabozantinib] + CC1(C)CCC(c2ccc(Cl)cc2)=C(CN2CCN(c3ccc(C(=O)NS(=O)(=O)c4ccc(N[C@H](CCN5CCOCC5)CSc5ccccc5)c(S(=O)(=O)C(F)(F)F)c4)cc3)CC2)C1 [Navitoclax] (partner 0.5 µM)
In short: as §1

Cabozantinib + Lapatinib = compound: COc1cc2nccc(Oc3ccc(NC(=O)C4(C(=O)Nc5ccc(F)cc5)CC4)cc3)c2cc1OC [Cabozantinib] + CS(=O)(=O)CCNCc1ccc(-c2ccc3ncnc(Nc4ccc(OCc5cccc(F)c5)c(Cl)c4)c3c2)o1 [Lapatinib] (partner 2 µM)
In short: as §1

UMC-11 gave a relative viability (Kobe2602 + Alpelisib; first compound 0.2 µM) of 1, a relative viability (Kobe2602 + Alpelisib; first compound 0.6325 µM) of 1.03 and a relative viability (Kobe2602 + Alpelisib; first compound 2 µM) of 0.954. For the same cell line, the relative viability (Kobe2602 + Alpelisib; first compound 6.325 µM) was 0.94, the relative viability (Kobe2602 + Alpelisib; first compound 20 µM) was 0.976 and the relative viability (Kobe2602 + Pemetrexed; first compound 0.2 µM) was 0.805. It also gave a relative viability (Kobe2602 + Pemetrexed; first compound 0.6325 µM) of 0.83, a relative viability (Kobe2602 + Pemetrexed; first compound 2 µM) of 0.822 and a relative viability (Kobe2602 + Pemetrexed; first compound 6.325 µM) of 0.788. For the same cell line, the relative viability (Kobe2602 + Pemetrexed; first compound 20 µM) was 0.779, the relative viability ([1]; first compound 0.02 µM) was 0.298 and the relative viability ([1]; first compound 0.06325 µM) was 0.332. It also gave a relative viability ([1]; first compound 0.2 µM) of 0.34, a relative viability ([1]; first compound 0.6325 µM) of 0.329 and a relative viability ([1]; first compound 2 µM) of 0.297. For the same cell line, the relative viability (Cabozantinib + Lapatinib; first compound 0.02 µM) was 1.05, the relative viability (Cabozantinib + Lapatinib; first compound 0.06325 µM) was 1.41 and the relative viability (Cabozantinib + Lapatinib; first compound 0.2 µM) was 0.86. The relative viability (Cabozantinib + Lapatinib; first compound 0.6325 µM) was 1.07 and the relative viability (Cabozantinib + Lapatinib; first compound 2 µM) was 0.91.
